Entries after “also recorded” stand apart in the source; their conditions may differ. Non-standard residues stand in square brackets, D forms with d. No end group written: not given here. Nle = CCCC[C@H](N)C(=O)O
How the values were obtained:
[1] = test system: monolayer rat pituitary cell cultures; assay: GH release from monolayer rat pituitary cell cultures; format: cell-based
Description: In vitro analysis of the synthetic peptide: The synthetic Nle^27 -hpGRF was added to the medium of monolayer rat pituitary cell cultures and incubated. After incubation, the media was assayed for GH released from the pituitary cells and compared to control cultures (medium alone). The amount of GH released in response to varying doses of Nle^27 -hpGRF was compared to the GH release induced by the same concentrations of the synthetic hpGRF.

[2] = Susceptibility to oxidation / loss of biological activity (stability); format: physicochemical
[3] = storage or in a living system; believed to be caused at least partly by oxidation of methionine 27; cited from earlier work

| resistance to oxidation ([2]; norleucine at position 27 instead of methionine) | Substance | GH-releasing activity (GH released into medium) compared with hpGRF ([1]; varying doses, same concentrations as synthetic hpGRF, tested at the same time under identical conditions) | loss of biological activity through methionine oxidation [2] | GH-releasing activity with reducing agent added to the test medium ([1]; L-ascorbic acid added to test medium, compared to medium without reducing agent) | loss of biological activity during storage or when introduced into a living system [3] |
| --- | --- | --- | --- | --- | --- |
| resistant to oxidation | YADAIFTNSYRKVLGQLSARKLLQDI[Nle]SRQQGQSNQERGARARL-NH2 [Nle^27 -hpGRF] | significantly greater biological activity than synthetic hpGRF; also recorded: greater growth hormone-releasing activity than the natural compound; also recorded: greater GH-releasing activity than original hpGRF |  |  |  |
|  | corticotropin-releasing factor |  | Loss of biologic activity |  |  |
|  | hpGRF: human pancreatic tumor growth hormone-releasing factor, 44 amino acid residues, methionine at position 27 |  | drastic loss of biological activity | enhance the GH-releasing activity | drastic loss of biological activity |

Reference: patent US4562175A, “Synthetic peptides” (priority 1984, dated 1985)
